Experimental data taken from ChEMBL document CHEMBL1201862, “PubChem BioAssay data set” (2004).
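Following 48 hours of exposure in 96-well plates, responses at five concentrations were used to interpolate endpoints linearly. Abbreviation: GI50, concentration required for 50% inhibition of growth.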 Calls of active or inactive are those of the source. Rule as the data show it: active = GI50 up to about 1.1 µM and inactive = higher.

Columns and labels:
Test in all cases: DTP human tumour cell line panel, 48 h
OVCAR-8 = system: OVCAR-8
NCI-H522 = system: NCI-H522
SK-MEL-28 = system: SK-MEL-28
HCC 2998 = system: HCC 2998
RXF 393 = system: RXF 393
IGROV-1 = system: IGROV-1
SF-539 = system: SF-539
NCI-H226 = system: NCI-H226
OVCAR-3 = system: OVCAR-3
M14 = system: M14
U-251 = system: U-251
TK-10 = system: TK-10
SF-268 = system: SF-268
SW-620 = system: SW-620
SR = system: SR
SNB-19 = system: SNB-19

Measured: GI50

COc1cc(C[S+]2CCCC2)c(SC)cc1C[S+]1CCCC1
inactive: OVCAR-8 > 100 µM | NCI-H522 > 100 µM | SK-MEL-28 > 100 µM | HCC 2998 > 100 µM | RXF 393 > 100 µM | IGROV-1 > 100 µM | SF-539 > 100 µM | NCI-H226 > 100 µM | OVCAR-3 > 100 µM | M14 > 100 µM | U-251 > 100 µM | TK-10 > 100 µM | SF-268 > 100 µM | SW-620 > 100 µM

N#CCc1cccc(CC#N)c1Br
inactive: OVCAR-8 > 100 µM | NCI-H522 > 100 µM | RXF 393 35 µM | SR > 100 µM | IGROV-1 > 100 µM | SF-539 > 100 µM | NCI-H226 > 100 µM | OVCAR-3 > 100 µM | M14 > 100 µM | SNB-19 > 100 µM | U-251 > 100 µM | SF-268 86.5 µM | SW-620 > 100 µM

CC(=O)Oc1cc(OC(C)=O)c2cc3c(cc2c1OC(C)=O)C(=O)C1(CCCC1)C3=O
inactive: OVCAR-8 16.4 µM | SK-MEL-28 15.6 µM | HCC 2998 21.7 µM | RXF 393 17.2 µM | IGROV-1 17.2 µM | OVCAR-3 19.3 µM | M14 17.7 µM | U-251 18.1 µM | TK-10 17.2 µM | SF-268 22.5 µM | SW-620 16.3 µM

O=C(O)CCC(NC(=O)c1ccccc1)C(=O)O (stereo unspecified)
inactive: OVCAR-8 > 100 µM | NCI-H522 > 100 µM | SK-MEL-28 > 100 µM | HCC 2998 > 100 µM | RXF 393 > 100 µM | SR > 100 µM | IGROV-1 > 100 µM | SF-539 > 100 µM | OVCAR-3 > 100 µM | M14 > 100 µM | SNB-19 > 100 µM | U-251 > 100 µM | TK-10 > 100 µM | SF-268 > 100 µM | SW-620 42.3 µM

CCN(CC)CCCN1CCc2c([nH]c3ccccc23)C1c1cccnc1 (stereo unspecified)
inactive: OVCAR-8 > 100 µM | NCI-H522 > 100 µM | SK-MEL-28 38.4 µM | HCC 2998 > 100 µM | RXF 393 > 100 µM | SR > 100 µM | IGROV-1 > 100 µM | SF-539 > 100 µM | NCI-H226 > 100 µM | OVCAR-3 88.3 µM | M14 61.2 µM | SNB-19 > 100 µM | U-251 > 100 µM | TK-10 > 100 µM | SW-620 > 100 µM

CCOC(=O)c1cnc2c(ccc3ncccc32)c1NCCCN(CC)CC
inactive: NCI-H522 > 100 µM | SK-MEL-28 50 µM | HCC 2998 > 100 µM | IGROV-1 > 100 µM | SF-539 > 10 µM | NCI-H226 > 100 µM | OVCAR-3 > 100 µM | M14 19.1 µM | SNB-19 50.1 µM | U-251 72.4 µM | TK-10 > 100 µM | SF-268 90.6 µM | SW-620 41.9 µM

ON1CCc2c([nH]c3ccccc23)C1c1ccc(Cl)cc1 (stereo unspecified)
inactive: OVCAR-8 32.4 µM | NCI-H522 28.1 µM | SK-MEL-28 36.4 µM | HCC 2998 23.8 µM | RXF 393 22.1 µM | SR 20.3 µM | SF-539 30.5 µM | NCI-H226 20.3 µM | OVCAR-3 27.4 µM | M14 42.7 µM | SNB-19 29 µM | U-251 15.2 µM | TK-10 43.9 µM | SF-268 33 µM | SW-620 33.2 µM

CCCC1C(=O)C(CC)Cc2c(OC)ccc(OC)c21 (stereo unspecified)
inactive: OVCAR-8 > 100 µM | NCI-H522 > 100 µM | SK-MEL-28 > 100 µM | HCC 2998 > 100 µM | RXF 393 > 100 µM | IGROV-1 > 100 µM | SF-539 > 100 µM | NCI-H226 > 100 µM | OVCAR-3 > 100 µM | M14 > 100 µM | SNB-19 > 100 µM | U-251 > 100 µM | TK-10 > 100 µM | SF-268 > 100 µM | SW-620 > 100 µM

Cc1ccc(C)c(N2C/C(=N\NC(=O)CC#N)C(c3nc4ccccc4s3)C(=O)C2=O)c1 (stereo unspecified)
inactive: OVCAR-8 > 100 µM | NCI-H522 > 100 µM | SK-MEL-28 > 100 µM | HCC 2998 > 100 µM | RXF 393 > 100 µM | SR > 100 µM | IGROV-1 > 100 µM | NCI-H226 > 100 µM | OVCAR-3 > 100 µM | M14 > 100 µM | SNB-19 > 100 µM | U-251 > 100 µM | TK-10 > 100 µM | SF-268 > 100 µM | SW-620 > 100 µM
